Our source for the IC50 and withdrawal symptoms values is patent publication EP2161266A1, “Benzofuran derivatives as orexin receptor antagonists” (EVOTEC Neurosciences GmbH, priority 2008, dated 2010).

In one assay the target is T1, human Orexin-1 receptor (hOX1R) (Homo sapiens, UniProt O43613).
T1 construct: host or cells: CHO-K1
T1 sequence (O43613 1-425): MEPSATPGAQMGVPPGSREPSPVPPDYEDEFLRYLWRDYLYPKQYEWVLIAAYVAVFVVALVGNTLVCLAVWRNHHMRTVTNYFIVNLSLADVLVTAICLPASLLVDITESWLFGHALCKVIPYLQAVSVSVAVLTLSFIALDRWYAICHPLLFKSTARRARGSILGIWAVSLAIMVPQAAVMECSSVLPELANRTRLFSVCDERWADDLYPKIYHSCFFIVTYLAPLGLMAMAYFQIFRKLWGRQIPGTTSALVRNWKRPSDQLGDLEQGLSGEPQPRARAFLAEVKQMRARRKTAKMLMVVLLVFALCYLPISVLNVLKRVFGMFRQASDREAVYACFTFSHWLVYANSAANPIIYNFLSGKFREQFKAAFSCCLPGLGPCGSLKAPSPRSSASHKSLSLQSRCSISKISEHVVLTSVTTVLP
Nature of the assay: Ca2+-flux assay for IC50 determination in CHO-hOX1R cells (Orexin-A stimulated). The note with it: 5nM Orexin-A agonist, fluo-4 fluorescence, compounds 1.28nM to 20µM, triplicates, read-out: 0X1. Type of assay: cell-based. An excerpt:
A CHO-K1 cell line stably expressing human Orexin-1 receptor (hOX1R, coding sequence of AF041243) was obtained from Euroscreen/PerkinElmer (CHO-hOX1R, ES-330-C). A plasmid containing the human Orexin-2 receptor (hOX2R) cDNA was purchased from RZPD (RZPDo834A1045-pT-REx-DEST30). The human Orexin-2 receptor coding region was amplified in a gradient PCR reaction using hOX2Rfor (5' ccaggatccgc […]) and hOX2Rrev (5' […]) primers containing restriction sites for the restriction enzymes BamHI and NotI. The PCR reaction was performed with the LightCycler system from Roche Applied Science. The amplified DNA fragment was digested with restriction enzymes BamHI and Notl (Fermentas) and subsequently cloned into the BamHI/NotI sites of the pFB-Neo vector (Stratagene) thereby generating plasmid pFB-Neo-hOX2R. For a stably expressing CHO-hOX2R cell line viral transduction of CHO-K1 cells were performed by using the pFB-Neo-hOX2R plasmid and the pVPack vector system from Stratagene according to the manufacturer's manual. Cells expressing the hOX2 receptor were selected using G418 at a final concentration of 500µg/ml and single cell clones were produced by limited dilution cloning.
CHO-hOX1R cells were grown in HAM F12 Nutrient Mixture (Sigma, N6658), 10%Fetal Bovine Serum (Sigma, F9665), 1% Penstrep (Sigma, p4333) and […] G418 (Sigma, A1720). CHO-hOX2R cells were grown in DMEM F12 medium (Sigma, D8437) supplemented with 10%Fetal Bovine Serum (Sigma, F9665), 1% Penstrep (Sigma, p4333) and […] G418 (Sigma, A1720). Cells were maintained under 5% CO2 atmosphere at 37°C. Cells were passaged every 2-3 days.
CHO-hOX1R and CHO-hOX2R cells were seeded at a density of 7500 cells per well into black, 384 well Costar Cellbind plates and cultured overnight in the appropriate cell culture medium as described above without G418 selection. The next day the medium was removed and the cells were incubated for 1.5hrs at 37°C in fluo-4, AM dye solution [2µM fluo-4,AM (Molecular Probes; F-14202, Lot#28C1-12) in 5mM probenecid (Sigma, P-8761, Lot# 121K1662), 0.1% Bovine Serum Albumin (BSA, MERCK, 1.12018.0100), 1xHBSS (Invitrogen, 14025-050), 20mM HEPES (Invitrogen,. 15630-056)]. […] All compound concentrations were measured in triplicates. Subsequently, agonist solution (5nM Orexin-A, TOCRIS, 1455) in 5mM probenecid, 0.1% BSA, 1xHBSS, 20mM HEPES was added during incubation of the plate at 37°C in the fluorescence plate reader (FlexStation, Molecular Devices). Fluorescence was measured for 0-60 seconds per well at an excitation of 485nm and emission of 538nm. For EC50 determination of Orexin-A the cells were incubated as described above for 20min at 37°C in probenecid buffer (5mM probenecid, 0.1% BSA, 1xHBSS, 20mM HEPES, 1%DMSO) without compound solution. Agonist injection occurred in the fluorescence plate reader (FlexStation, Molecular Devices) at different concentrations ranging from 0-100nM in 5mM probenecid, 0.1% BSA, 1xHBSS, 20mM HEPES. Detection of fluorescence was as described above.
Take `Cc1c(C(=O)Nc2ccc3c(c2)OCCO3)oc2ccccc12` [Example 1, N-(2,3-Dihydro-1,4-benzodioxin-6-yl)-3-methyl-2-benzofurancarboxamide]: the IC50 was < 3000 nM. On to `CCN(CC)c1ccc(NC(=O)c2oc3ccccc3c2C)cc1` [Example 2, N-[4-(Diethylamino)phenyl]-3-methyl-2-benzofurancarboxamide], for which the IC50 is < 300 nM. On the same count and under the same terms, the value for `Cc1nc2ccc(NC(=O)c3oc4ccccc4c3C)cc2o1` [Example 3, N-(2-Methyl-6-benzoxazolyl)-3-methyl-2-benzofurancarboxamide] was < 300 nM; that for `CCN(CC)c1ccc(NC(=O)c2oc3ccccc3c2COC)cc1` [Example 4, N-[4-(Diethylamino)phenyl]-3-(methoxymethyl)-2-benzofurancarboxamide] was < 1000 nM.

With `CCc1c(C(=O)Nc2ccc(N(CC)CC)cc2)oc2ccccc12` [Example 5, N-[4-(Diethylamino)phenyl]-3-ethyl-2-benzofurancarboxamide], the IC50 is < 300 nM. On the same count and under the same terms, the figure for `CCc1c(C(=O)Nc2ccc3nc(C)oc3c2)oc2ccccc12` [Example 6, N-(2-Methyl-6-benzoxazolyl)-3-ethyl-2-benzofurancarboxamide] is < 300 nM; for `COc1ccc(NC(=O)c2oc3ccccc3c2C)cc1Cl` [Example 7, N-(3-Chloro-4-methoxyphenyl)-3-methyl-2-benzofurancarboxamide] it is < 3000 nM. With `Cc1c(C(=O)Nc2ccc3c(c2)OCCCO3)oc2ccccc12` [Example 8, N-(3,4-dihydro-2H-1,5-benzodioxepin-7-yl)-3-methyl-2-benzofurancarboxamide], the IC50 was < 3000 nM.

`CCOc1ccc(NC(=O)c2oc3ccccc3c2C)cc1` [Example 9, N-(4-Ethoxyphenyl)-3-methyl-2-benzofurancarboxamide]: the IC50 was < 3000 nM. Still for that read-out and setting: the figure for `Cc1c(C(=O)Nc2ccc3c(ccn3C)c2)oc2ccccc12` [Example 10, N-(1-Methyl-1H-indol-5-yl)-3-methyl-2-benzofurancarboxamide] is < 1000 nM; for `CCN(CC)c1ccc(NC(=O)c2oc3ccccc3c2OC)cc1` [Example 12, N-[4-(Diethylamino)phenyl]-3-methoxy-2-benzofurancarboxamide] it is < 300 nM; for `CCN(CC)c1ccc(NC(=O)c2cc3ccccc3o2)cc1` [Example 13, N-[4-(Diethylamino)phenyl]-2-benzofurancarboxamide] it is < 1000 nM. The same measure, in the same setting: the value for `Cc1nc2ccc(NC(=O)c3oc4ccccc4c3C)cc2s1` [Example 14, N-(2-Methyl-6-benzothiazolyl)-3-methyl-2-benzofurancarboxamide] was < 1000 nM; that for `CCN(CC)c1ccc(NC(=O)c2oc3ccccc3c2NC(C)=O)cc1` [Example 15, N-[4-(Diethylamino)phenyl]-3-(acetylamino)-2-benzofurancarboxamide] was < 3000 nM.

“N-(4-Thioanisolyl)-3-methyl-2-benzofurancarboxamide [Example 11]”: the IC50 was < 1000 nM.

The next assay deals with T2, OX1 (Mus musculus, UniProt P58307).
T2 sequence (P58307 1-416): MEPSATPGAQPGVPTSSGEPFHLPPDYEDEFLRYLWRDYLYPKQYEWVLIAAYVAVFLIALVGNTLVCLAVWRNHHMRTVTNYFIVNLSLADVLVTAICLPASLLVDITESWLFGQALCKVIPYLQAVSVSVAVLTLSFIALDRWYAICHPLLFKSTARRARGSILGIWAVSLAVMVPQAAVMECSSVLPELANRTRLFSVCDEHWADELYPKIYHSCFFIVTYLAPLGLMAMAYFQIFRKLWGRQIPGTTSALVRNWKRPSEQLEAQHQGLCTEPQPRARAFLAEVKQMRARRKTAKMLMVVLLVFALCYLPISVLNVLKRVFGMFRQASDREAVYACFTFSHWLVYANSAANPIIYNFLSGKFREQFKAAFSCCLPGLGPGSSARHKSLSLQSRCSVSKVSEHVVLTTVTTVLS
Test: not given
As to conditions: pretreatment before naloxone-precipitated withdrawal; Sharf et al, Biol Psychiatry, 2008; cited from earlier work.
As to `Cc1nc2ccc(NC(=O)Nc3ccnc4cccnc34)cc2o1` [SB-334867], the withdrawal symptoms result is on record as “striking reduction in several withdrawal symptoms”.
